Reference: patent publication US9783509B2, “Six-membered C-N-linked aryl sulfide derivatives and aryl sulfoxide derivatives as pest conrol agents” (BAYER CROPSCIENCE AKTIENGESELLSCHAFT, priority 2013, dated 2017)
Like-named read-outs stand apart in the source and are kept apart here.

Legend:
[1] = test system: southern root-knot nematode (Meloidogyne incognita); test: Meloidogyne incognita test (sand, lettuce, acetone solvent, 14 days); format: in vivo; details: application rate 20 ppm, after 14 days; for pest or weed control at 20 ppm: Meloidogyne incognita, 336 h, read-out: nematicidal efficacy (formation of galls)
Method: Meloidogyne incognita Test
Solvent: 125.0 parts by weight of acetone
To produce an appropriate active ingredient formulation, 1 part by weight of active ingredient is mixed with the stated amount of solvent and the concentrate is diluted with water to the desired concentration.
Vessels are filled with sand, active ingredient solution, an egg/larvae suspension of the southern root-knot nematode (Meloidogyne incognita) and lettuce seeds. The lettuce seeds germinate and the plants develop. The galls develop on the roots
After 14 days, the nematicidal efficacy in % is determined by the formation of galls. 100% means that no galls were found; 0% means that the number of galls on the treated plants corresponds to the untreated control.

[2] = test system: greenhouse red spider mite (Tetranychus urticae); test: Tetranychus urticae spray test, OP-resistant (bean leaf discs); format: in vivo; details: after 6 days; for pest or weed control at 500 g/ha: Tetranychus urticae, foliar, 144 h, read-out: efficacy (spider mites killed)
Method: Tetranychus urticae—Spray Test, OP-Resistant
Solvent: 78.0 parts by weight of acetone • • 1.5 parts by weight of dimethylformamide
Emulsifier: alkylaryl polyglycol ether
To produce an appropriate active ingredient formulation, 1 part by weight of active ingredient is dissolved using the specified parts by weight of solvent and made up with water containing an emulsifier concentration of 1000 ppm until the desired concentration is attained. To produce further test concentrations, the preparation is diluted with emulsifier-containing water.
Discs of bean leaves (Phaseolus vulgaris) infested by all stages of the greenhouse red spider mite (Tetranychus urticae) are sprayed with an active ingredient formulation of the desired concentration.
After 6 days, the efficacy in % is determined. 100% means that all the spider mites have been killed; 0% means that none of the spider mites have been killed.

[3] = log P by reversed-phase HPLC analogously to OECD Guideline 117; format: physicochemical; details: for chromatographic logP: reversed-phase C18 HPLC column
Method: The log P values were determined analogously to OECD Guideline 117 (EC Directive 92/69/EEC) by HPLC (high-performance liquid chromatography) using reversed-phase columns (C 18), by the following methods:
[a] LC-MS determination in the acidic range is effected at pH 2.7 with 0.1% aqueous formic acid and acetonitrile (containing 0.1% formic acid) as eluents with a linear gradient from 10% acetonitrile to 95% acetonitrile; or with 0.025% aqueous trifluoroacetic acid and acetonitrile (containing 0.025% trifluoroacetic acid) as eluents with a linear gradient from 50% acetonitrile to 80% acetonitrile.
[b] LC-MS determination in the neutral range is effected at pH 7.8 with 0.001 molar aqueous ammonium hydrogencarbonate solution and acetonitrile as eluents; linear gradient from 10% acetonitrile to 95% acetonitrile.
Calibration is effected with solutions of a homologous series of unbranched alkan-2-ones (having 3 to 16 carbon atoms) with known log P values (log P values determined on the basis of the retention times by linear interpolation between two successive alkanones).

[4] = [a] acidic range, pH 2.7, formic acid (or trifluoroacetic acid)/acetonitrile
[5] = [b] neutral range, pH 7.8, ammonium hydrogencarbonate/acetonitrile
[6] = pH 2.7, running text, [a] acidic range, pH 2.7, read-out: log P[a]
[7] = pH 2.7, table column, [a] acidic range, pH 2.7, formic acid (or trifluoroacetic acid)/acetonitrile, read-out: LogP[a]
[8] = pH 7.8, running text, [b] neutral range, pH 7.8, read-out: log P[b]
[9] = pH 7.8, table column, [b] neutral range, pH 7.8, ammonium hydrogencarbonate/acetonitrile, read-out: LogP[b]

| Structure (SMILES) | nematicidal efficacy (formation of galls) [1] | efficacy (spider mites killed) ([2]; application rate 500 g/ha) | LogP[a] [3, 4] | LogP[b] [3, 5] | further results |
| --- | --- | --- | --- | --- | --- |
| CCn1c(=O)ccn(-c2cc([S+]([O-])CC(F)(F)F)c(C)cc2C)c1=O (centres unmarked) [compound 97] | 90% | 100% | 1.96 | 1.99 |  |
| Cc1cc(F)c(-n2ccc(=O)n(CC(F)F)c2=O)cc1[S+]([O-])CC(F)(F)F (centres unmarked) [compound 70] | 100% | 90% | 2.06 | 2.11 |  |
| Cc1cc(F)c(-n2ccc(=O)n(CC3CC3)c2=O)cc1SCC(F)(F)F [compound 74] | 100% | 90% | 3.24 | 3.38 |  |
| C=CCn1c(=O)ccn(-c2cc(SCC(F)(F)F)c(C)cc2F)c1=O [compound 77] | 100% | 90% | 3.08 | 3.06 |  |
| Cc1cc(F)c(-n2ccc(=O)n(Cc3ccc(F)cc3)c2=O)cc1[S+]([O-])CC(F)(F)F (racemic) [compound 64] | 100% |  | 2.68 | 2.77 | efficacy (spider mites killed) ([2]; application rate 100 g/ha): 90% |
| Cc1ccc(-n2ccc(=O)n(CC#N)c2=O)cc1SCC(F)(F)F [compound 85] | 90% | 100% | 2.55 | 2.62 |  |
| Cc1ccc(-n2ccc(=O)n(C(C)C)c2=O)cc1SCC(F)(F)F [compound 87] | 90% | 100% | 3.18 | 3.25 |  |
| Cc1ccc(-n2ccc(=O)n(CC(F)(F)F)c2=O)cc1[S+]([O-])CC(F)(F)F (centres unmarked) [compound 90] | 100% | 100% | 2.18 | 2.21 |  |
| COCn1c(=O)ccn(-c2cc([S+]([O-])CC(F)(F)F)c(C)cc2F)c1=O (centres unmarked) [compound 68] | 100% | 90% | 1.67 | 1.74 |  |
| Cc1cc(F)c(-n2ccc(=O)n(CC(F)(F)F)c2=O)cc1SCC(F)(F)F [compound 72] | 100% | 90% | 3.16 | 3.29 |  |
| CCn1c(=O)ccn(-c2ccc(C)c([S+]([O-])CC(F)(F)F)c2)c1=O (centres unmarked) [compound 98] | 100% | 100% | 1.77 | 1.77 |  |
| Cc1cc(F)c(-n2ccc(=O)n(CC#N)c2=O)cc1[S+]([O-])CC(F)(F)F (racemic) [compound 61] | 100% | 90% | 1.72 | 1.73 |  |
| C=CCn1c(=O)ccn(-c2cc([S+]([O-])CC(F)(F)F)c(C)cc2F)c1=O (racemic) [compound 65] | 100% |  | 2.01 | 2.08 | efficacy (spider mites killed) ([2]; application rate 100 g/ha): 90% |
| Cc1cc(F)c(-n2ccc(=O)n(CC#N)c2=O)cc1SCC(F)(F)F [compound 73] | 100% | 90% | 2.62 | 2.65 |  |
| O=c1cnn(-c2cc(SCC(F)(F)F)c(Cl)cc2Cl)c(=O)n1CC(F)(F)F [compound 12] | 90% | 90% | 3.93 |  |  |
| CCn1c(=O)ccn(-c2cc(SCC(F)(F)F)c(C)cc2F)c1=O [Ex. No. 71, 3-Ethyl-1-{2-fluoro-4-methyl-5-[(2,2,2-trifluoroethyl)sulphanyl]phenyl}pyrimidine-2,4(1H,3H)-dione] |  |  |  |  | pest or weed control at 20 ppm [1]: 100%; pest or weed control at 500 g/ha ([2]; application rate 500 g/ha): 90%; chromatographic logP [3, 6]: 2.93; chromatographic logP [3, 7]: 2.86; chromatographic logP [3, 8]: 2.86; chromatographic logP [3, 9]: 2.93 |
| CCn1c(=O)ccn(-c2cc([S+]([O-])CC(F)(F)F)c(C)cc2F)c1=O (centres unmarked) [Ex. No. 59, 3-Ethyl-1-{2-fluoro-4-methyl-5-[(2,2,2-trifluoroethyl)sulphinyl]phenyl}pyrimidine-2,4(1H,3H)-dione] |  |  |  |  | pest or weed control at 20 ppm [1]: 100%; pest or weed control at 500 g/ha ([2]; application rate 500 g/ha): 90%; chromatographic logP [3, 6]: 1.94; chromatographic logP [3, 7]: 1.88; chromatographic logP [3, 8]: 1.88; chromatographic logP [3, 9]: 1.94 |
| Cc1cc(F)c(-n2ccc(=O)n(CC3CC3)c2=O)cc1[S+]([O-])CC(F)(F)F (racemic) [compound 62] | 100% | 90% | 2.29 | 2.37 |  |
| Cc1cc(F)c(-n2ccc(=O)[nH]c2=O)cc1[S+]([O-])CC(F)(F)F (centres unmarked) [Ex. No. 56, 1-{2-Fluoro-4-methyl-5-[(2,2,2-trifluoroethyl)sulphinyl]phenyl}pyrimidine-2,4(1H,3H)-dione] |  |  |  |  | pest or weed control at 20 ppm [1]: 90%; pest or weed control at 500 g/ha ([2]; application rate 500 g/ha): 100%; chromatographic logP [3, 6]: 1.3; chromatographic logP [3, 7]: 1.24; chromatographic logP [3, 8]: 1.24; chromatographic logP [3, 9]: 1.3 |
| Cc1ccc(-n2ccc(=O)n(CC3CC3)c2=O)cc1SCC(F)(F)F [compound 86] | 90% | 100% | 3.21 | 3.31 |  |
| Cc1ccc(-n2ccc(=O)n(CC(F)(F)F)c2=O)cc1SCC(F)(F)F [compound 84] | 100% | 100% | 3.16 | 3.15 |  |
| Cn1c(=O)cnn(-c2cc(SCC(F)(F)F)c(Cl)cc2Cl)c1=O [compound 14] | 90% | 100% | 3.31 |  |  |
| C#CCn1c(=O)ccn(-c2cc([S+]([O-])CC(F)(F)F)c(C)cc2F)c1=O (centres unmarked) [compound 67] | 100% |  | 1.86 | 1.92 | efficacy (spider mites killed) ([2]; application rate 20 g/ha): 90% |
| Cc1cc(F)c(-n2ncc(=O)n(CC#N)c2=O)cc1SCC(F)(F)F [compound 39] | 90% | 100% | 2.96 | 2.9 |  |
| Cc1cc(C)c([S+]([O-])CC(F)(F)F)cc1-n1ccc(=O)n(CC(F)(F)F)c1=O (centres unmarked) [compound 95] | 100% | 100% | 2.40 | 2.44 |  |
